Reference: patent publication EP4702986A1, “POLYPEPTIDE AND USE THEREOF” (Biocells (Beijing) Biotech Co., Ltd., priority 2023, dated 2024)
“Also recorded” adds a separate entry of the source. Numbered stars: 1 amine (or outer) side, 2 acyl side, 3 side chain; on linkers, the order of the positions; unused ones are H or OH. Side chains are listed from the residue outwards. Peptide text beside a SMILES is read from it. * marks the point of attachment. C18 diacid = O=C(O)CCCCCCCCCCCCCCCCC(=O)*; γGlu = O=C(O)[C@H](CCC(=O)[*:2])N[*:1]; Fumaroyl = O=C(O)/C=C/C(=O)*; Lauroyl = CCCCCCCCCCCC(=O)*; AEEA = NCCOCCOCC(=O)O

Legend:
male SD rats = assay: in vivo; conditions: for Observations of Animal Status: one animal per row, observed 24 hours
Description: (§1) In an experiment about acute toxicity of intravenous administration, male SD rats weighing 200-230 g were dosed in a range between 480 µg/Kg and 30 µg/Kg via tail vein injection in a descending order of dosage. […] Toxic response and mortality of the rats were preliminarily observed, and time of death and doses without mortality of the rats were recorded. The level of acute toxicity of the polypeptides was preliminarily determined based on the doses without mortality.

in vivo = conditions: male, SD, rat, in vivo, iv
Description: as §1

human ETA receptor = biological target: T1, human ETA receptor (Homo sapiens, UniProt P25101); assay: Selectivity of polypeptides on human ETA receptor (IP-One Gq kit, % of positive control ET1); format: cell-based; conditions: read-out: hETAR agonist activity, percentage of activity relative to ET1
T1 construct: expressed in transfected cells; host or cells: 293T-17 cells, transient transfection
T1 sequence (P25101 21-427): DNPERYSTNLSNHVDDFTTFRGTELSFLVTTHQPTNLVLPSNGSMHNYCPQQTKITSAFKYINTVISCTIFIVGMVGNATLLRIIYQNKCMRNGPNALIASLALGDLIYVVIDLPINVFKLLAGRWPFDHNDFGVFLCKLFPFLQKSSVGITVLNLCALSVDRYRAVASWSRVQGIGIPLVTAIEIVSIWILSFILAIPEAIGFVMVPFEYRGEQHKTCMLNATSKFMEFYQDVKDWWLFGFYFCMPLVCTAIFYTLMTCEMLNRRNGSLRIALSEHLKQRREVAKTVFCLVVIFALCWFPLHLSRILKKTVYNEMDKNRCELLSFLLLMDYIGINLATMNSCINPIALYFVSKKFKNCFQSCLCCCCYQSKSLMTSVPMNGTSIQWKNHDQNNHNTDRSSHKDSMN
Outline: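 293T-17 cells transiently transfected with human ETA receptor (48 h), 30,000 cells/well exposed to polypeptides for 1 h at 37°C; IP1 accumulation by HTRF (665/620 nm ratio). Activity given as % of ET1 at the same concentration after PBS-control subtraction.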

[1] = Determination of half-lives of polypeptides (plasma, LC-MS); conditions: for half-life: C57 BL/6, mouse, plasma, iv
[2] = intravenous (tail vein) 120 µg/Kg
[3] = intravenous (tail vein) 240 µg/Kg
[4] = intravenous (tail vein) 480 µg/Kg
[5] = intravenous (tail vein) 360 µg/Kg

| SMILES | Observations of Animal Status (male SD rats; intravenous (tail vein) 30 µg/Kg) | Observations of Animal Status (male SD rats; intravenous (tail vein) 60 µg/Kg) | Observations of Animal Status (male SD rats; [2]) | Observations of Animal Status (male SD rats; [3]) | MTD at 24 h (in vivo) [mg/kg] | activation at 10 µM (human ETA receptor) [%] | activation at 100 µM (human ETA receptor) [%] | half-life [1] [min] | Observations of Animal Status (male SD rats; [4]) | acute toxicity of intravenous administration (comparison among polypeptides) (male SD rats; male SD rats, tail vein injection) | AUClast 0-30 min ([1]; C57 BL/6 mice, i.v., dosage per compound 0.48, 0.96 or 1 mpk) [ng·h/mL] | Observations of Animal Status (male SD rats; [5]) |
| --- | --- | --- | --- | --- | --- | --- | --- | --- | --- | --- | --- | --- |
| CCCCCCCCCCCC(=O)N[C@@H](CCC(=O)O)C(=O)NCCOCCOCC(=O)NCCCC[C@H](NC(=O)[C@H](Cc1c[nH]cn1)NC(=O)[C@H](C)NC(=O)[C@H](Cc1ccccc1)NC(=O)[C@H](Cc1ccc(O)cc1)NC(=O)[C@@H](NC(=O)[C@H](C)NC(=O)[C@H](CCC(=O)O)NC(=O)[C@H](CCC(=O)O)NC(=O)[C@H](CC(=O)O)NC(=O)/C=C/C(=O)O)C(C)C)C(=O)N[C@@H](CC(=O)O)C(=O)N[C@H](C(=O)N[C@H](C(=O)N[C@@H](Cc1c[nH]c2ccccc12)C(=O)O)[C@@H](C)CC)C(C)C [BX-238] (Fumaroyl-DEEAVYFAHK([AEEA-Glu-Lauroyl])DVIW-OH) | Breathing speeded up at 53 minutes, showed no willingness to move at 1.2 hours; found dead the next morning (estimated to have died during the night); also recorded: Breathing speeded up at 50 minutes, showed no willingness to move at 1.2 hours; found dead the next morning (estimated to have died during the night) | Developed rapid breathing at 40-45 minutes; died at 1 hour | Developed rapid breathing at 5 minutes, the eyes turned pale and purple at 14 minutes; died at 16 minutes | Developed abdominal breathing at 5-6 minutes, developed rapid breathing and collapsed at 9 minutes; died at 11 minutes | 0.03 | -4.74 | -5.07 | 53 |  |  |  |  |
| CC[C@H](C)[C@H](NC(=O)[C@H](CC(=O)O)NC(=O)[C@H](CC(C)C)NC(=O)[C@H](Cc1c[nH]cn1)NC(=O)[C@H](C)NC(=O)[C@H](Cc1ccccc1)NC(=O)[C@H](Cc1ccc(O)cc1)NC(=O)[C@@H](NC(=O)[C@H](C)NC(=O)[C@H](CCC(=O)O)NC(=O)[C@H](CCC(=O)O)NC(=O)[C@H](CCCCNC(=O)COCCOCCNC(=O)COCCOCCNC(=O)CC[C@H](NC(=O)CCCCCCCCCCCCCCCCC(=O)O)C(=O)O)NC(=O)/C=C/C(=O)O)C(C)C)C(=O)N[C@H](C(=O)N[C@@H](Cc1c[nH]c2ccccc12)C(=O)O)[C@@H](C)CC [BX-253] (Fumaroyl-K([AEEA-AEEA-γGlu-C18 diacid])EEAVYFAHLDIIW-OH) |  |  |  | No abnormalities | 0.48 | -12.9 | -9.03 | 63 | No abnormalities | lowest acute toxicity | 3989 |  |
| CC[C@H](C)[C@H](NC(=O)[C@H](CC(=O)O)NC(=O)[C@H](CC(C)C)NC(=O)[C@H](Cc1c[nH]cn1)NC(=O)[C@H](C)NC(=O)[C@H](Cc1ccccc1)NC(=O)[C@H](Cc1ccc(O)cc1)NC(=O)[C@@H](NC(=O)[C@H](C)NC(=O)[C@H](CCC(=O)O)NC(=O)[C@H](CCC(=O)O)NC(=O)[C@H](CC(=O)O)NC(=O)[C@H](CC(=O)O)NC(=O)COCCOCCNC(=O)COCCOCCNC(=O)CC[C@H](NC(=O)CCCCCCCCCCCCCCCCC(=O)O)C(=O)O)C(C)C)C(=O)N[C@H](C(=O)N[C@@H](Cc1c[nH]c2ccccc12)C(=O)O)[C@@H](C)CC [BX-255] ({C18 diacid-γGlu-AEEA-AEEA}-DDEEAVYFAHLDIIW-OH) |  |  | No obvious adverse reactions in the first 1 hour; breathing became slightly faster at nearly 2 hours; was in good condition and recovered when observed the next day; also recorded: Showed no willingness to move at 9 minutes; recovered at 1 hour and 10 minutes; also recorded: Lay still and showed no willingness to move at 12 minutes; became active at 17 minutes; signs of pain were observed in the animal through pupil observation; no pain at 28 minutes; also recorded: Developed difficulty in breathing at 17 minutes, recovered to normal in about 10 seconds; signs of pain were observed in the animal through pupil observation; no pain at 28 minutes | No obvious reaction in the first 27 minutes after administration; breathing speeded up at 27 minutes; died at 49 minutes after administration; also recorded: No obvious reaction in the first 24 minutes after administration; breathing speeded up at 27 minutes; died at 43 minutes after administration | 0.12 |  |  |  | The body turned purple at 23 minutes after administration; died at 29 minutes after administration |  |  | The body turned purple at 12 minutes after administration; died at 22 minutes after administration |
| CC[C@H](C)[C@H](NC(=O)[C@H](CC(=O)O)NC(=O)[C@H](CC(C)C)NC(=O)[C@H](Cc1c[nH]cn1)NC(=O)[C@H](C)NC(=O)[C@H](Cc1ccccc1)NC(=O)[C@H](Cc1ccc(O)cc1)NC(=O)[C@@H](NC(=O)[C@H](C)NC(=O)[C@H](CCC(=O)O)NC(=O)[C@H](CCCCNC(=O)COCCOCCNC(=O)COCCOCCNC(=O)CC[C@H](NC(=O)CCCCCCCCCCCCCCCCC(=O)O)C(=O)O)NC(=O)[C@H](CC(=O)O)NC(=O)/C=C/C(=O)O)C(C)C)C(=O)N[C@H](C(=O)N[C@@H](Cc1c[nH]c2ccccc12)C(=O)O)[C@@H](C)CC [BX-254] (Fumaroyl-DK([AEEA-AEEA-γGlu-C18 diacid])EAVYFAHLDIIW-OH) |  |  |  | No obvious abnormalities; also recorded: Developed rapid breathing, the limbs turned purple, developed breathing depression, and limbs moved like swimming at 15 minutes after administration; then died at 20 minutes after administration; also recorded: Developed rapid breathing, the limbs turned purple, and had weak limbs at 14 minutes after administration; died of breathing depression at 21 minutes after administration | 0.12 |  |  |  | The body turned purple at 22 minutes after administration; died at 25 minutes after administration |  |  | The body turned purple at 16 minutes after administration; died at 26 minutes after administration |
